Laboratory results taken from patent US20250282749A1 (Tango Therapeutics, Inc., priority 2022, published 2025).
Each block holds one molecule with its values, some of them ahead of it.

Assays:
Type in all cases: cell-based
[1] = test system: PRMT5 (SDMA) in HAP1 MTAP-deleted cell line; assay: SDMA in-cell western assay, HAP1 MTAP-deleted cell line; details: for IC50 / IC90: Homo sapiens, SDMA in-cell western, HAP1 MTAP-deleted (MTAP-null) cell line; for Hap1 MTAP intact/deleted ratio: ratio of SDMA in-cell western IC50 in HAP1 MTAP-intact to IC50 in HAP1 MTAP-deleted cell line
From the text: (§1) HAP1 MTAP-intact is a cell line in which endogenous levels of MTAP are expressed, and HAP1 MTAP-deleted is an MTAP-null cell line.

[2] = test system: HAP1 MTAP-deleted cell line; assay: viability assay for the MTAP-deleted cell line; details: Homo sapiens
[3] = test system: PRMT5 (SDMA) in HAP1 MTAP-intact cell line; assay: SDMA in-cell western assay, HAP1 MTAP-intact cell line; details: Homo sapiens, HAP1 MTAP-intact cell line (endogenous MTAP), read-out: Hap 1 MTAP intact IC50
From the text: as §1

Structure (SMILES): COc1ncc(NC(=O)C(=O)N2C[C@@H](C)N(C(=O)C(C)C)C[C@@H]2c2cccc(N3CCN(C)CC3)c2)cc1C(N)=O [Compound 10, 5-(2-((2S,5R)-4-isobutyryl-5-methyl-2-(3-(4-methylpiperazin-1-yl)phenyl)piperazin-1-yl)-2-oxoacetamido)-2-methoxynicotinamide]
IC50 [1]: 5 to 50 nM
IC90 [1]: > 125 nM
Hap1 MTAP intact/deleted ratio [1]: C (an IC50 ratio of less than 15 fold)
IC50 [2]: 100 to 1000 nM
IC50 [3]: > 50 nM

Structure (SMILES): COc1ncc(NC(=O)C(=O)N2C[C@@H](C)N(C(=O)C(C)C)C[C@@H]2c2ccc(F)c(Cl)c2)cc1C(N)=O [Compound 12, 5-(2-((2S,5R)-2-(3-chloro-4-fluorophenyl)-4-isobutyryl-5-methylpiperazin-1-yl)-2-oxoacetamido)-2-methoxynicotinamide]
IC50 [1]: 5 to 50 nM
IC90 [1]: > 125 nM
Hap1 MTAP intact/deleted ratio [1]: A (an IC50 ratio greater than or equal to 30 fold)
IC50 [2]: 100 to 1000 nM
IC50 [3]: > 50 nM

Structure (SMILES): Cc1cc(NC(=O)C(=O)N2C[C@@H](C)N(C(=O)C(C)(C)CN(C)C)C[C@@H]2c2ccccc2)cnc1N [Compound 13]
IC50 [1]: 5 to 50 nM
IC90 [1]: < 75 nM
Hap1 MTAP intact/deleted ratio [1]: C (an IC50 ratio of less than 15 fold)
IC50 [2]: < 100 nM
IC50 [3]: > 50 nM

Structure (SMILES): Cc1cc(NC(=O)C(=O)N2C[C@@H](C)N(C(=O)OC(C)(C)C)C[C@@H]2c2ccc(F)c(F)c2)cnc1N [Compound 21]
IC50 [1]: 5 to 50 nM
IC90 [1]: 75 to 125 nM
Hap1 MTAP intact/deleted ratio [1]: C (an IC50 ratio of less than 15 fold)
IC50 [2]: 100 to 1000 nM
IC50 [3]: > 50 nM

Structure (SMILES): C[C@@H]1CN(C(=O)C(=O)Nc2cnc(N)c(C3CC3)c2)[C@@H](c2ccc(F)c(F)c2)CN1C(=O)C1(C(F)(F)F)CC1 [Compound 22]
IC50 [1]: 5 to 50 nM
IC90 [1]: 75 to 125 nM
Hap1 MTAP intact/deleted ratio [1]: B (an IC50 ratio greater than or equal to 15 fold but lower than 30 fold)
IC50 [2]: < 100 nM
IC50 [3]: > 50 nM

Structure (SMILES): Cc1cc(NC(=O)C(=O)N2C[C@@H](C)N(C(=O)C(C)(C)N(C)C)C[C@@H]2c2ccccc2)cnc1N [Compound 28]
IC50 [1]: 5 to 50 nM
IC90 [1]: 75 to 125 nM
Hap1 MTAP intact/deleted ratio [1]: B (an IC50 ratio greater than or equal to 15 fold but lower than 30 fold)
IC50 [2]: < 100 nM
IC50 [3]: > 50 nM

Structure (SMILES): Cc1cccc([C@H]2CN(C(=O)C3(C(F)(F)F)CC3)[C@H](C)CN2C(=O)C(=O)Nc2cnc(N)c(C)c2)c1 [Compound 30, N-(6-amino-5-methylpyridin-3-yl)-2-((2S,5R)-5-methyl-2-(m-tolyl)-4-(1-(trifluoromethyl)cyclopropanecarbonyl)piperazin-1-yl)-2-oxoacetamide]
IC50 [1]: 5 to 50 nM
IC90 [1]: 75 to 125 nM
Hap1 MTAP intact/deleted ratio [1]: C (an IC50 ratio of less than 15 fold)
IC50 [2]: < 100 nM
IC50 [3]: > 50 nM

Structure (SMILES): CCc1cc(NC(=O)C(=O)N2C[C@@H](C)N(CC(C)C)C[C@@H]2c2ccccc2)cnc1N [Compound 32, N-(6-amino-5-ethylpyridin-3-yl)-2-((2S,5R)-4-isobutyl-5-methyl-2-phenylpiperazin-1-yl)-2-oxoacetamide]
IC50 [1]: 5 to 50 nM
IC90 [1]: > 125 nM
Hap1 MTAP intact/deleted ratio [1]: A (an IC50 ratio greater than or equal to 30 fold)
IC50 [2]: < 100 nM
IC50 [3]: > 50 nM

Structure (SMILES): CCc1cc(NC(=O)C(=O)N2C[C@@H](C)N(C(=O)C(C)(C)C)C[C@@H]2c2ccc(F)cc2)cnc1N [Compound 33, N-(6-amino-5-ethylpyridin-3-yl)-2-((2S,5R)-2-(4-fluorophenyl)-5-methyl-4-pivaloylpiperazin-1-yl)-2-oxoacetamide]
IC50 [1]: < 5 nM
IC90 [1]: < 75 nM
Hap1 MTAP intact/deleted ratio [1]: C (an IC50 ratio of less than 15 fold)
IC50 [2]: < 100 nM
IC50 [3]: 5 to 50 nM

Structure (SMILES): Cc1cc(NC(=O)C(=O)N2C[C@@H](C)N(C(=O)C3(C)CCN(C)C3)C[C@@H]2c2ccccc2)cnc1N (some centres unmarked) [Compound 34]
IC50 [1]: 5 to 50 nM
IC90 [1]: > 125 nM
Hap1 MTAP intact/deleted ratio [1]: B (an IC50 ratio greater than or equal to 15 fold but lower than 30 fold)
IC50 [2]: 100 to 1000 nM
IC50 [3]: > 50 nM

Structure (SMILES): C[C@@H]1CN(C(=O)C(=O)Nc2cncc3cn[nH]c23)[C@@H](c2ccccc2)CN1C(=O)OC(C)(C)C [Compound 35, tert-butyl (2R,5S)-2-methyl-4-[2-oxo-2-(1H-pyrazolo[4,3-c]pyridin-7-ylamino)acetyl]-5-phenyl-piperazine-1-carboxylate]
IC50 [1]: 5 to 50 nM
IC90 [1]: > 125 nM
Hap1 MTAP intact/deleted ratio [1]: A (an IC50 ratio greater than or equal to 30 fold)
IC50 [2]: < 100 nM
IC50 [3]: > 50 nM

Structure (SMILES): CCc1cc(NC(=O)C(=O)N2C[C@@H](C)N(C(=O)C(C)(C)CN(C)C)C[C@@H]2c2ccccc2)cnc1N [Compound 37]
IC50 [1]: < 5 nM
IC90 [1]: < 75 nM
Hap1 MTAP intact/deleted ratio [1]: A (an IC50 ratio greater than or equal to 30 fold)
IC50 [2]: < 100 nM
IC50 [3]: > 50 nM

Structure (SMILES): Cc1cc(NC(=O)C(=O)N2C[C@@H](C)N(C(=O)C3(C(F)(F)F)CC3)C[C@@H]2c2ccc(F)c(F)c2)cnc1N [Compound 38, N-(6-amino-5-methylpyridin-3-yl)-2-((2S,5R)-2-(3,4-difluorophenyl)-5-methyl-4-(1-(trifluoromethyl)cyclopropanecarbonyl)piperazin-1-yl)-2-oxoacetamide]
IC50 [1]: 5 to 50 nM
IC90 [1]: 75 to 125 nM
Hap1 MTAP intact/deleted ratio [1]: C (an IC50 ratio of less than 15 fold)
IC50 [2]: < 100 nM
IC50 [3]: > 50 nM

Structure (SMILES): Cc1cccc([C@H]2CN(C(=O)C3(C)CC3)[C@H](C)CN2C(=O)C(=O)Nc2cnc(N)c(C)c2)c1 [Compound 40, N-(6-amino-5-methylpyridin-3-yl)-2-((2S,5R)-5-methyl-4-(1-methylcyclopropanecarbonyl)-2-(m-tolyl)piperazin-1-yl)-2-oxoacetamide]
IC50 [1]: 5 to 50 nM
IC90 [1]: > 125 nM
Hap1 MTAP intact/deleted ratio [1]: C (an IC50 ratio of less than 15 fold)
IC50 [2]: < 100 nM
IC50 [3]: > 50 nM

More lines, main results first:

IC50 [1]: < 5 nM
IC90 [1]: < 75 nM
IC50 [3]: 5 to 50 nM
Structure (SMILES): Cc1cc(NC(=O)C(=O)N2C[C@@H](C)N(C(=O)C(C)C)C[C@@H]2c2ccc(N3CCN(C)CC3)cc2)cnc1N [Compound 11, N-(6-amino-5-methylpyridin-3-yl)-2-((2S,5R)-4-isobutyryl-5-methyl-2-(4-(4-methylpiperazin-1-yl)phenyl)piperazin-1-yl)-2-oxoacetamide]
Hap1 MTAP intact/deleted ratio [1]: C (an IC50 ratio of less than 15 fold)
IC50 [2]: < 100 nM

IC50 [1]: < 5 nM
IC90 [1]: < 75 nM
IC50 [3]: > 50 nM
Structure (SMILES): C[C@@H]1CN(C(=O)C(=O)Nc2cnc(N)c(C3CC3)c2)[C@@H](c2ccc(F)c(Cl)c2)CN1C(=O)C1(C(F)(F)F)CC1 [Compound 14, N-(6-amino-5-cyclopropylpyridin-3-yl)-2-((2S,5R)-2-(3-chloro-4-fluorophenyl)-5-methyl-4-(1-(trifluoromethyl)cyclopropanecarbonyl)piperazin-1-yl)-2-oxoacetamide]
Hap1 MTAP intact/deleted ratio [1]: C (an IC50 ratio of less than 15 fold)
IC50 [2]: < 100 nM

IC50 [1]: < 5 nM
IC90 [1]: < 75 nM
IC50 [3]: 5 to 50 nM
Structure (SMILES): CC(C)CN1C[C@H](c2ccccc2)N(C(=O)C(=O)Nc2cnc(N)c3cn[nH]c23)C[C@H]1C [Compound 16]
Hap1 MTAP intact/deleted ratio [1]: A (an IC50 ratio greater than or equal to 30 fold)
IC50 [2]: < 100 nM

IC50 [1]: < 5 nM
IC90 [1]: < 75 nM
IC50 [3]: > 50 nM
Structure (SMILES): C[C@@H]1CN(C(=O)C(=O)Nc2cnc(N)c3cn[nH]c23)[C@@H](c2cccc(Cl)c2)CN1C [Compound 18]
Hap1 MTAP intact/deleted ratio [1]: A (an IC50 ratio greater than or equal to 30 fold)
IC50 [2]: < 100 nM

IC50 [1]: < 5 nM
IC90 [1]: < 75 nM
IC50 [3]: > 50 nM
Structure (SMILES): CC(C)C(=O)N1C[C@H](c2ccc(F)c(Cl)c2)N(C(=O)C(=O)Nc2cnc(N)c(C3CC3)c2)C[C@H]1C [Compound 24, N-(6-amino-5-cyclopropylpyridin-3-yl)-2-((2S,5R)-2-(3-chloro-4-fluorophenyl)-4-isobutyryl-5-methylpiperazin-1-yl)-2-oxoacetamide]
Hap1 MTAP intact/deleted ratio [1]: B (an IC50 ratio greater than or equal to 15 fold but lower than 30 fold)
IC50 [2]: < 100 nM

IC50 [1]: < 5 nM
IC90 [1]: < 75 nM
IC50 [3]: 5 to 50 nM
Structure (SMILES): Cc1cc(NC(=O)C(=O)N2C[C@@H](C)N(C(=O)OC(C)(C)C)C[C@@H]2c2ccccc2)cnc1N [Compound 25]
Hap1 MTAP intact/deleted ratio [1]: C (an IC50 ratio of less than 15 fold)
IC50 [2]: < 100 nM

IC50 [1]: < 5 nM
IC90 [1]: < 75 nM
IC50 [3]: > 50 nM
Structure (SMILES): Cc1cc(NC(=O)C(=O)N2C[C@@H](C)N(C(=O)C3(C(F)(F)F)CC3)C[C@@H]2c2ccc(F)c(Cl)c2)cnc1N [Compound 29, N-(6-amino-5-methylpyridin-3-yl)-2-((2S,5R)-2-(3-chloro-4-fluorophenyl)-5-methyl-4-(1-(trifluoromethyl)cyclopropanecarbonyl)piperazin-1-yl)-2-oxoacetamide]
Hap1 MTAP intact/deleted ratio [1]: B (an IC50 ratio greater than or equal to 15 fold but lower than 30 fold)
IC50 [2]: < 100 nM

IC50 [1]: < 5 nM
IC90 [1]: > 125 nM
IC50 [3]: > 50 nM
Structure (SMILES): Cc1cc(NC(=O)C(=O)N2C[C@@H](C)N(C(=O)C3(C)CC3)C[C@@H]2c2ccsc2)cnc1N [Compound 31, N-(6-amino-5-methyl-3-pyridyl)-2-[(2S,5R)-5-methyl-4-(1-methylcyclopropanecarbonyl)-2-(3-thienyl)piperazin-1-yl]-2-oxo-acetamide]
Hap1 MTAP intact/deleted ratio [1]: B (an IC50 ratio greater than or equal to 15 fold but lower than 30 fold)
IC50 [2]: < 100 nM
